These results are taken from US20250195521A1 (Revolution Medicines, Inc., priority 2020, published 2025).

Some results are limits rather than exact numbers.

The subject of test [1] is Capan-1 cells (K-Ras G12V). The experiment in a line: CellTiter-Glo cell viability, Capan-1. Format: cell-based, human. To be noted: Homo sapiens, CAPAN-1, 120 h, K-Ras G12V, 5-day treatment; read-out: Capan-1 Cell Viability IC50. Put shortly: (§1)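 Viability is read as luminescence after five days of compound exposure, with plates first equilibrated to room temperature for roughly 30 minutes. Each signal is expressed as a percentage of the mean DMSO control, and curves are fitted by four-parameter logistic regression.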
(In ATP-based viability assays light output follows the ATP content of the culture.)

For test [2], the system named is NCI-H358 cells (K-Ras G12C). Description: CellTiter-Glo cell viability, NCI-H358. To be noted: Homo sapiens, NCI-H358, 120 h, K-Ras G12C, 5-day treatment; read-out: H358 Cell Viability IC50. Format: cell-based, human. The gist of the method: as §1
Test [3] addresses KRAS WT (Homo sapiens (Human), UniProt P01116+P62937). The experiment in a line: Ras-Raf disruption/FRET/MOA assay (BRAF RBD, Cyclophilin A). Format: biochemical. To be noted: read-out: KRAS WT FRET data IC50. Put shortly:
(§2)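 His6-K-Ras-GMPPNP (12.5 nM), GST-BRAF RBD (50 nM) and tagless Cyclophilin A (25 μM) were combined in 25 mM HEPES pH 7.3 with 100 mM NaCl, 5 mM MgCl2, 0.1% BSA and 0.002% Tween20, with compound as a 10-point 3-fold series from 30 μM final, then incubated 3 h at 25° C.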

Test [4] addresses KRAS G12S (Homo sapiens (Human), UniProt P01116+P62937, G12S). Described as above. Format: biochemical. To be noted: read-out: KRAS G12S FRET IC50. Put shortly:
as §2

Test [5] addresses KRAS G12D (Homo sapiens (Human), UniProt P01116+P62937, G12D). The test is described as above. Format: biochemical. To be noted: read-out: KRAS G12D FRET IC50. The gist of the method: as §2
For test [6], the target named is NRAS G12C (Homo sapiens (Human), UniProt P01111+P62937, G12C). The description is as above. Format: biochemical. To be noted: read-out: NRAS G12C FRET data IC50. The gist of the method: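 Ras-GMPPNP (12.5 nM), BRAF RBD (50 nM) and 25 μM Cyclophilin A were incubated with compound for 3 h at 25° C, then detected 1.5 h with anti-His Eu and anti-GST APC; IC50 values follow from the reduced TR-FRET ratio.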

In test [7] the target is KRAS G12C (Homo sapiens (Human), UniProt P01116+P62937, G12C). The test is described as above. To be noted: read-out: KRAS G12C FRET IC50. Format: biochemical. The gist of the method: as §2
Test [8] deals with KRAS G13C (Homo sapiens (Human), UniProt P01116+P62937, G13C). The description is as above. Format: biochemical. To be noted: read-out: KRAS G13C FRET IC50. Put shortly: as §2
Test [9] concerns the target KRAS G12V (Homo sapiens (Human), UniProt P01116+P62937, G12V). Described as above. Format: biochemical. To be noted: read-out: KRAS G12V FRET IC50. The gist of the method: as §2
The target of test [10] is KRAS G13D (Homo sapiens (Human), UniProt P01116+P62937, G13D). The description is as above. To be noted: read-out: KRAS G13D FRET data IC50. Format: biochemical. Put shortly:
as §2

One may read the IC50 as the point on the concentration scale where inhibition reaches its midpoint.

KRAS G13C, sequence (P01116 other isoform, or with tags, fused parts or gaps G13C): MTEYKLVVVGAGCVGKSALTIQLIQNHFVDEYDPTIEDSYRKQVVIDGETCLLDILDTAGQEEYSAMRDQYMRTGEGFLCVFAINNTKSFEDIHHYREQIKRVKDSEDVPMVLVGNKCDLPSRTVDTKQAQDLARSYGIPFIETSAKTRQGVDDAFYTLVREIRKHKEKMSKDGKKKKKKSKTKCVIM
KRAS G13C, sequence (P62937 whole entry): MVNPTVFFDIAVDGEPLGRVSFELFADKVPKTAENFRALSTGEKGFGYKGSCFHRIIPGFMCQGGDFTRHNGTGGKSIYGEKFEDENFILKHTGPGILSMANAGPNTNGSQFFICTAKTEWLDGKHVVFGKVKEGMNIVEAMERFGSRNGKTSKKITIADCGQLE
KRAS G12V, sequence (P01116 other isoform, or with tags, fused parts or gaps G12V): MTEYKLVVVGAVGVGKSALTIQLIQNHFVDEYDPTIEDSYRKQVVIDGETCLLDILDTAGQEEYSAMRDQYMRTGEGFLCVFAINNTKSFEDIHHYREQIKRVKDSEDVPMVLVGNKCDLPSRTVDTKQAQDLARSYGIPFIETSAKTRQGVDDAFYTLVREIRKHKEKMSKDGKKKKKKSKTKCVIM
KRAS G12V, sequence (P62937 whole entry): as the sequence (P62937 whole entry) above
KRAS G12D, sequence (P01116 other isoform, or with tags, fused parts or gaps G12D): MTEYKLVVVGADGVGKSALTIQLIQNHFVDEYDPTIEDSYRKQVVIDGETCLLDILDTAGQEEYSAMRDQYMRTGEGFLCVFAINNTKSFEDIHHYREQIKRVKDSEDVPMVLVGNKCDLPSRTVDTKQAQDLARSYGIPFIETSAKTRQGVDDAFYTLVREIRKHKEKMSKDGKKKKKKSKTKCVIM
KRAS G12D, sequence (P62937 whole entry): as the sequence (P62937 whole entry) above
NRAS G12C, sequence (P01111 whole entry G12C): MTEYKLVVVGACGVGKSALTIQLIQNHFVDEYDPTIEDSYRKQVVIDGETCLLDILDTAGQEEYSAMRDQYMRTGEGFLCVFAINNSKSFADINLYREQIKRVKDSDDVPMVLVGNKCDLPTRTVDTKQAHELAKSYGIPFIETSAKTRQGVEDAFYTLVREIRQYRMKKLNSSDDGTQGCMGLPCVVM
NRAS G12C, sequence (P62937 whole entry): as the sequence (P62937 whole entry) above
KRAS G13D, sequence (P01116 other isoform, or with tags, fused parts or gaps G13D): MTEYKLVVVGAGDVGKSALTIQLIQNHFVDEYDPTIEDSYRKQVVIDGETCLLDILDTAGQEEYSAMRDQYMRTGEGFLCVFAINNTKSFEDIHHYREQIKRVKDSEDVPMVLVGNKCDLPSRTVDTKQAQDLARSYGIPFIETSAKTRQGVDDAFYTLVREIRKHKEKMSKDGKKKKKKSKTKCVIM
KRAS G13D, sequence (P62937 whole entry): as the sequence (P62937 whole entry) above
KRAS G12S, sequence (P01116 other isoform, or with tags, fused parts or gaps G12S): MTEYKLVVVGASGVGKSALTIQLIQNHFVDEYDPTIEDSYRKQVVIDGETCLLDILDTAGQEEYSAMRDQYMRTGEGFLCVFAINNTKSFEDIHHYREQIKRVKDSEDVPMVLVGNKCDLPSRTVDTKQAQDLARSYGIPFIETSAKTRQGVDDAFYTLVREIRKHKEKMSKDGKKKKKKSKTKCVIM
KRAS G12S, sequence (P62937 whole entry): as the sequence (P62937 whole entry) above
KRAS WT, sequence (P01116 other isoform, or with tags, fused parts or gaps): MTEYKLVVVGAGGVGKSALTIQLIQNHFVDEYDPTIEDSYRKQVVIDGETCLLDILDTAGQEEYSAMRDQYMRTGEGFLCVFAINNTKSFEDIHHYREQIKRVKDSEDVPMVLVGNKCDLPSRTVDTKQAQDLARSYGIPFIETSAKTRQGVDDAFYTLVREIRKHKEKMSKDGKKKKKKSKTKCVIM
KRAS WT, sequence (P62937 whole entry): as the sequence (P62937 whole entry) above
KRAS G12C, sequence (P01116-2 other isoform, or with tags, fused parts or gaps G12C): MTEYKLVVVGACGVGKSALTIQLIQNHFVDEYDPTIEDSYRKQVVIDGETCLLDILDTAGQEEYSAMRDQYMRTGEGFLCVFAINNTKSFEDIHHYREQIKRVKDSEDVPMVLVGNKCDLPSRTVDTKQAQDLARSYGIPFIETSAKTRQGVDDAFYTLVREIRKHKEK
KRAS G12C, sequence (P62937 whole entry): as the sequence (P62937 whole entry) above

Regarding `CCn1c(-c2cccnc2[C@H](C)OC)c2c3cc(ccc31)-c1cc(O)cc(c1)C[C@H](NC(=O)[C@H](C(C)C)N(C)C(=O)C1CCC1)C(=O)N1CCC[C@H](N1)C(=O)OCC(C)(C)C2` [Compound A218], the IC50 was 10 to 100 nM in test [1]; 10 to 100 nM in [2]; 10 to 100 nM in [3]; 10 to 100 nM in test [4]; 100 to 1000 nM in test [5]; 10 to 100 nM in test [6]. Besides, the IC50 was in the range of 10 to 100 nM in test [7], 10 to 100 nM in test [8], 10 to 100 nM in [9] and 100 to 1000 nM in test [10].
Take `CCn1c(-c2cccnc2[C@H](C)OC)c2c3cc(ccc31)-c1cc(O)cc(c1)C[C@H](NC(=O)[C@H](C(C)C)N(C)C(=O)C1CC1)C(=O)N1CCC[C@H](N1)C(=O)OCC(C)(C)C2` [Compound A224]: the IC50 in test [1] lay in the range of 10 to 100 nM; in test [2], 10 to 100 nM; in [3], 10 to 100 nM; in test [4] it was 10 to 100 nM; in test [5] it was 100 to 1000 nM; in [6] it was 10 to 100 nM. The IC50 in [7], in test [8], in test [9] and in test [10] was 10 to 100 nM each time.
Regarding `CCn1c(-c2cccnc2[C@H](C)OC)c2c3cc(ccc31)-c1cc(O)cc(c1)C[C@H](NC(=O)[C@H](C(C)C)N(C)C(=O)[C@H]1CCCO1)C(=O)N1CCC[C@H](N1)C(=O)OCC(C)(C)C2` [Compound A240], the IC50 is 10 to 100 nM in test [1]; 10 to 100 nM in test [2]; 100 to 1000 nM in test [3]; 100 to 1000 nM in test [4]; 100 to 1000 nM in test [5]; 10 to 100 nM in [6]. The IC50 in [7] was 10 to 100 nM; in test [8], 10 to 100 nM; in [9] it was 100 to 1000 nM; in [10], 100 to 1000 nM.
Turning to `CCn1c(-c2cccnc2[C@H](C)OC)c2c3cc(ccc31)-c1cc(O)cc(c1)C[C@H](NC(=O)[C@H](C(C)C)N(C)C(=O)[C@H]1CCCCNC1)C(=O)N1CCC[C@H](N1)C(=O)OCC(C)(C)C2` [Compound A242], the IC50 in [1] lay in the range of 100 to 1000 nM; in test [2], 10 to 100 nM; in test [3], 10 to 100 nM; in test [4], 10 to 100 nM; in test [5] it was 10 to 100 nM; in [6], 10 to 100 nM. Besides, the IC50 was 10 to 100 nM in test [7], 10 to 100 nM in test [8], 100 to 1000 nM in test [9] and 10 to 100 nM in [10].
As to `CCn1c(-c2cccnc2[C@H](C)OC)c2c3cc(ccc31)-c1csc(n1)C[C@H](NC(=O)[C@H](C(C)C)N(C)C(=O)[C@H]1CCN(C(C)=O)C1)C(=O)N1CCC[C@H](N1)C(=O)OCC(C)(C)C2` [Compound A244], the IC50 in test [1] was 100 to 1000 nM; in test [2], 1000 to 10000 nM; in [3], 1000 to 10000 nM; in test [4], 1000 to 10000 nM; in test [5], greater than 10000 nM; in test [6], 1000 to 10000 nM. The IC50 was 1000 to 10000 nM in [7], 1000 to 10000 nM in test [8], 1000 to 10000 nM in test [9] and greater than 10000 nM in [10].
With `CCn1c(-c2cccnc2[C@H](C)OC)c2c3cc(ccc31)-c1cc(O)cc(c1)C[C@H](NC(=O)[C@H](C(C)C)N(C)C(=O)C1Cc3nccn3C1)C(=O)N1CCC[C@H](N1)C(=O)OCC(C)(C)C2` (stereo partly drawn) [Compound A249], the IC50 in test [1] was 100 to 1000 nM; in test [2], 10 to 100 nM; in test [3] it was 10 to 100 nM; in [4], 10 to 100 nM; in test [5], 10 to 100 nM; in test [6] it was 10 to 100 nM. In addition, the IC50 in test [7], in [8], in test [9] and in [10] was 10 to 100 nM throughout.
`CCn1c(-c2cnccc2COC)c2c3cc(ccc31)-c1cc(O)cc(c1)C[C@H](NC(=O)C(C)C1CCOCC1)C(=O)N1CCC[C@H](N1)C(=O)OCC(C)(C)C2` (stereo partly drawn) [Compound A258]: the IC50 in test [1] was greater than 10000 nM; in [2], 1000 to 10000 nM; in test [3], 1000 to 10000 nM; in [4] it was 1000 to 10000 nM; in test [5] it was greater than 10000 nM; in test [6] it was 1000 to 10000 nM. The IC50 in [7] was in the range of 1000 to 10000 nM; in test [8], 100 to 1000 nM; in [9] it was 1000 to 10000 nM; in test [10], 1000 to 10000 nM.
For the compound `CCn1c(-c2cccnc2[C@H](C)OC)c2c3cc(ccc31)-c1csc(n1)C[C@H](NC(=O)[C@H](C(C)C)N(C)C(=O)N1CCN(C)CC13CC3)C(=O)N1CCC[C@H](N1)C(=O)OCC(C)(C)C2` [Compound A307], the IC50 in test [1] was in the range of 100 to 1000 nM; in test [2], 10 to 100 nM; in test [3] it was 1000 to 10000 nM; in test [4], 1000 to 10000 nM; in test [5], 1000 to 10000 nM; in test [6], 1000 to 10000 nM. Also, the IC50 in test [7], in [8], in [9] and in test [10] was 1000 to 10000 nM throughout.
On to `CCn1c(-c2cccnc2[C@H](C)OC)c2c3cc(ccc31)-c1csc(n1)C[C@H](NC(=O)[C@H](C(C)C)N(C)C(=O)N1CC3CCC1CN3C)C(=O)N1CCC[C@H](N1)C(=O)OCC(C)(C)C2` [Compound A308], for which the IC50 is 100 to 1000 nM in test [1]; 100 to 1000 nM in test [2]; 100 to 1000 nM in [3]; 1000 to 10000 nM in test [4]; 1000 to 10000 nM in test [5]; 100 to 1000 nM in test [6]. In addition, the 50% inhibitory concentration (IC50) was 100 to 1000 nM in [7], 1000 to 10000 nM in test [8], 1000 to 10000 nM in [9] and 1000 to 10000 nM in test [10].
Regarding `CCn1c(-c2cccnc2[C@H](C)OC)c2c3cc(ccc31)-c1csc(n1)C[C@H](NC(=O)[C@H](C(C)C)N(C)C(=O)N1CC(N(C)C(C)C)C1)C(=O)N1CCC[C@H](N1)C(=O)OCC(C)(C)C2` [Compound A318], the IC50 in test [1] lay within 10 to 100 nM; in [2] it was 10 to 100 nM; in test [3], 100 to 1000 nM; in test [4] it was 100 to 1000 nM; in test [5], 1000 to 10000 nM; in [6] it was 100 to 1000 nM. Moreover, the IC50 in test [7], in test [8], in [9] and in test [10] was 100 to 1000 nM each time.
With `CCn1c(-c2cccnc2[C@H](C)OC)c2c3cc(ccc31)-c1cccc(c1)C[C@H](NC(=O)[C@H](C(C)C)N(C)C(=O)N1CC(OC)C1)C(=O)N1CCC[C@H](N1)C(=O)OCC(C)(C)C2` [Compound A355], the IC50 is 100 to 1000 nM in [1]; 100 to 1000 nM in [2]; 100 to 1000 nM in test [3]; 1000 to 10000 nM in [4]; 1000 to 10000 nM in test [5]; 100 to 1000 nM in [6]. Besides, the IC50 was in the range of 100 to 1000 nM in test [7], 100 to 1000 nM in test [8], 100 to 1000 nM in test [9] and 1000 to 10000 nM in [10].
As to `CCn1c(-c2cccnc2[C@H](C)OC)c2c3cc(ccc31)-c1csc(n1)C[C@H](NC(=O)[C@H](C(C)C)N(C)C(=O)N1CCCCC1)C(=O)N1CCC[C@H](N1)C(=O)OCC(C)(C)C2` [Compound A363], the IC50 in [1] lay in the range of 10 to 100 nM; in [2], 10 to 100 nM; in test [3], 10 to 100 nM; in test [4], 10 to 100 nM; in [5] it was 100 to 1000 nM; in test [6] it was 10 to 100 nM. Also, the IC50 lay within 10 to 100 nM in [7], 100 to 1000 nM in test [8], 100 to 1000 nM in test [9] and 100 to 1000 nM in [10].
